Patent US20230158025A1 (UNIVERSITY OF UTAH RESEARCH FOUNDATION, priority 2020, published 2023)
Where two headings read alike, the source gives them in different places.

Columns and labels:
[1] = aqueous kinetic solubility
recombinant human GALK1 = recombinant human GALK1 (Homo sapiens, UniProt P51570); assay: hGALK1 biochemical activity assay (Kinase-Glo Plus, ATP depletion)
Outline: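 Recombinant human or mouse GALK1 (5 nM, with 100 μM galactose, in the added enzyme solution) was run with ATP (35 μM in the substrate solution) in HEPES pH 8.0 buffer. Compounds were tested at 11 1/3-step concentrations from 57.4 μM to 0.97 nM. After 1 h at room temperature, remaining ATP was read by Kinase-Glo Plus luminescence.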

recombinant mouse GALK1 = recombinant mouse GALK1 (Mus musculus, UniProt Q9R0N0); assay: mGALK1 biochemical activity assay (Kinase-Glo Plus, ATP depletion)
Sequence of recombinant mouse GALK1 (Q9R0N0 whole entry): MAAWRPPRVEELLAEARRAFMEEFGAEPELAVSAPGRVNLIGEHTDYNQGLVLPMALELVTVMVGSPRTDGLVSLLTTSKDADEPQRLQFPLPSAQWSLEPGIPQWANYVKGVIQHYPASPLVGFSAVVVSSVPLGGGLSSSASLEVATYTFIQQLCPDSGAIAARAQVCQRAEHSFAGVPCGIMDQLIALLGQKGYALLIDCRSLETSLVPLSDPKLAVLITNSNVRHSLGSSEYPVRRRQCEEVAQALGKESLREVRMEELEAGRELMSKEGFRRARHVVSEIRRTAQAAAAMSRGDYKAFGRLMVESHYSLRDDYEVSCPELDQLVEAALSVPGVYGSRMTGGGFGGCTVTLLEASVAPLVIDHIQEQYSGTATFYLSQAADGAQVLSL
Outline: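 Recombinant GALK1 (5 nM) with 100 μM galactose; GALK1 turnover read as ATP depletion by Kinase-Glo Plus luminescence. Reaction ran 1 h at room temperature before detection reagent was added.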

PAMPA permeability = conditions: for Papp: Perm. (1 × 10^−6 cm/sec)
[2] = rat microsomal stability (RLM)
[3] = Tables 2-15, 35 μM ATP, 100 μM galactose, 1 h, bracketed figure after some values (e.g. −1.2) is undefined and not reported, read-out: hGALK IC50
[4] = recombinant human GALK1, Kinase-Glo Plus ATP depletion, read-out: hGALK
[5] = Tables 2-15, 35 μM ATP, 100 μM galactose, 1 h, bracketed figure after some values is undefined and not reported, read-out: mGALK IC50
[6] = recombinant mouse GALK1, Kinase-Glo Plus ATP depletion, read-out: mGALK

Sequence of recombinant human GALK1 (P51570 whole entry): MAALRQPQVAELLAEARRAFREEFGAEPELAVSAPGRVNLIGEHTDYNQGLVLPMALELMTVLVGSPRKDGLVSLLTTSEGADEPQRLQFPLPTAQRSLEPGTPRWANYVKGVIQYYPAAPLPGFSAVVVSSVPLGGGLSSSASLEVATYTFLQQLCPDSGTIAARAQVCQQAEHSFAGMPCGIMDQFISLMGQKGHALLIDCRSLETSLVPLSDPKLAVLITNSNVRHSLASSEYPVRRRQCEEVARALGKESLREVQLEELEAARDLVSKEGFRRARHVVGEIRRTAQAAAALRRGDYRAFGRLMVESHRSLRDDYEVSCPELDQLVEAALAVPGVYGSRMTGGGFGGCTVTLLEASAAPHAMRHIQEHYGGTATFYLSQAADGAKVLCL

SMILES	Sol. [1] [µg/mL]	IC50 (recombinant human GALK1; [3]) [µM]	IC50 (recombinant human GALK1; [4]) [µM]	IC50 (recombinant mouse GALK1; [5]) [µM]	IC50 (recombinant mouse GALK1; [6]) [µM]	Papp (PAMPA permeability; PAMPA) [×10⁻⁶ cm/s]	Metab. Stabil. (m) ([2]; microsomal half-life)	Perm. (1 × 10^−6 cm/sec) (PAMPA permeability)	Sol. ([1]; aqueous kinetic solubility) [µg/mL]	Metab. Stabil. (m) ([2]; microsomal stability half-life)	Perm. (1 × 10^−6 cm/sec) (PAMPA permeability; PAMPA)
CC1=C(C(=O)Nc2cc(C(=O)O)ccn2)C(c2ccc(C)cc2Cl)N=C(Nc2nc3cccc(N)c3o2)N1 (racemic) [Compound 79, 2-(2-((7-aminobenzo[d]oxazol-2-yl)amino)-4-(2-chloro-4-methylphenyl)-6-methyl-1,4-dihydropyrimidine-5-carboxamido)isonicotinic acid]	>78	0.12	0.12	1.72	1.72	< 1	>30				
COc1ccc(C2N=C(Nc3nc4cccc(N)c4o3)NC(C)=C2C(=O)Nc2cc(C(=O)O)ccn2)c(Cl)c1 (racemic) [Compound 80, 2-(2-((7-aminobenzo[d]oxazol-2-yl)amino)-4-(2-chloro-4-methoxyphenyl)-6-methyl-1,4-dihydropyrimidine-5-carboxamido)isonicotinic acid]	>81	0.14	0.14	1.93	1.93	< 1	>30				
CC1=C(C(=O)Nc2cc(C(=O)O)ccn2)C(c2ccccc2Cl)N=C(Nc2nc3c(N)cccc3o2)N1 (stereo not drawn) [Compound 2, 2-(2-((4-aminobenzo[d]oxazol-2-yl)amino)-4-(2-chlorophenyl)-6-methyl-1,4-dihydropyrimidine-5-carboxamido)isonicotinic acid]	>76		21.7	30.6	30.6		>30	<1 1 × 10^−6 cm/sec			
COc1ccc2nc(NC3=NC(c4ccccc4Cl)C(C(=O)Nc4cc(C(=O)O)ccn4)=C(C)N3)oc2c1 (stereo not drawn) [Compound 7, 2-(4-(2-chlorophenyl)-6-methyl-2-((6-methoxybenzo[d]oxazol-2-yl)amino)-1,4-dihydropyrimidine-5-carboxamido)isonicotinic acid]	>79		21.7	21.7	21.7		>30	<1 1 × 10^−6 cm/sec			
CC1=C(C(=O)Nc2cc(C(=O)O)ccn2)[C@H](c2ccccc2Cl)N=C(Nc2nc3ccc(F)cc3o2)N1 [Compound 19, (R)-2-(4-(2-chlorophenyl)-2-((6-fluorobenzo[d]oxazol-2-yl)amino)-6-methyl-1,4-dihydropyrimidine-5-carboxamido)isonicotinic acid]	55.6	0.24	0.24	1.72	1.72		>30	<1 1 × 10^−6 cm/sec			
CC1=C(C(=O)Nc2cc(C(=O)O)ccn2)[C@@H](c2ccccc2Cl)N=C(Nc2nc3ccc(F)cc3o2)N1 [Compound 20, (S)-2-(4-(2-chlorophenyl)-2-((6-fluorobenzo[d]oxazol-2-yl)amino)-6-methyl-1,4-dihydropyrimidine-5-carboxamido)isonicotinic acid]	17.3	3.06	3.06	13.7	13.7		>30	<1 1 × 10^−6 cm/sec			
CC1=C(C(=O)Nc2cc(C(=O)O)ccn2)C(c2ccccc2Cl)N=C(Nc2nc3cccc([N+](=O)[O-])c3o2)N1 (stereo not drawn) [Compound 23, 2-(4-(2-chlorophenyl)-6-methyl-2-((7-nitrobenzo[d]oxazol-2-yl)amino)-1,4-dihydropyrimidine-5-carboxamido)isonicotinic acid]	7.3	19.3	19.3	38.5	38.5		>30	31.0 1 × 10^−6 cm/sec			
CC1=C(C(=O)Nc2cc(C(=O)O)ccn2)[C@@H](c2ccccc2Cl)N=C(Nc2nc3cccc(N)c3o2)N1 [Compound 25, (S)-2-(2-((7-aminobenzo[d]oxazol-2-yl)amino)-4-(2-chlorophenyl)-6-methyl-1,4-dihydropyrimidine-5-carboxamido)isonicotinic acid]	>76	6.11	6.11	34.3	34.3		>30	<1.3 1 × 10^−6 cm/sec			
CC1=C(C(=O)Nc2ccc(C(=O)O)cn2)C(c2ccccc2Cl)N=C(Nc2nc3ccc(F)cc3o2)N1 (stereo not drawn) [Compound 26, 6-(4-(2-chlorophenyl)-2-((6-fluorobenzo[d]oxazol-2-yl)amino)-6-methyl-1,4-dihydropyrimidine-5-carboxamido)nicotinic acid]	>77		0.68		3.43		>30	<1 1 × 10^−6 cm/sec			
CC1=C(C(=O)Nc2cc(C(=O)O)ccc2Cl)C(c2ccccc2Cl)N=C(Nc2nc3ccc(F)cc3o2)N1 (stereo not drawn) [Compound 29, 4-chloro-3-(4-(2-chlorophenyl)-2-((6-fluorobenzo[d]oxazol-2-yl)amino)-6-methyl-1,4-dihydropyrimidine-5-carboxamido)benzoic acid]	54.0		1.54		19.3		>30	29.6 1 × 10^−6 cm/sec			
CC1=C(C(=O)Nc2cc(C(=O)O)ccc2F)C(c2ccccc2Cl)N=C(Nc2nc3ccc(F)cc3o2)N1 (stereo not drawn) [Compound 30, 3-(4-(2-chlorophenyl)-2-((6-fluorobenzo[d]oxazol-2-yl)amino)-6-methyl-1,4-dihydropyrimidine-5-carboxamido)-4-fluorobenzoic acid]	35.7		2.17		6.85		>30	2.2 1 × 10^−6 cm/sec			
CC1=C(C(=O)Nc2cc(CO)ccn2)C(c2ccccc2Cl)N=C(Nc2nc3ccc(F)cc3o2)N1 (stereo not drawn) [Compound 37, 4-(2-chlorophenyl)-2-((6-fluorobenzo[d]oxazol-2-yl)amino)-N-(4-(hydroxymethyl)pyridin-2-yl)-6-methyl-1,4-dihydropyrimidine-5-carboxamide]	<1	3.06	3.06	10.9	10.9		>30	59.9 1 × 10^−6 cm/sec			
CC1=C(C(=O)Nc2cc(C(N)=O)ccn2)C(c2ccccc2Cl)N=C(Nc2nc3ccc(F)cc3o2)N1 (stereo not drawn) [Compound 38, N-(4-carbamoylpyridin-2-yl)-4-(2-chlorophenyl)-2-((6-fluorobenzo[d]oxazol-2-yl)amino)-6-methyl-1,4-dihydropyrimidine-5-carboxamide]	2.4	4.85	4.85	19.3	19.3		>30	15.5 1 × 10^−6 cm/sec			
CCOC(=O)c1cccc(NC(=O)C2=C(C)NC(Nc3nc4ccccc4o3)=NC2c2ccccc2Cl)c1 (stereo not drawn) [Compound 139, ethyl 3-(2-(benzo[d]oxazol-2-ylamino)-4-(2-chlorophenyl)-6-methyl-1,4-dihydropyrimidine-5-carboxamido)benzoate]			3.85			8.8			<1	>30	
CC1=C(C(=O)Nc2ccc(CO)cc2)C(c2ccccc2Cl)N=C(Nc2nc3ccccc3o2)N1 (stereo not drawn) [Compound 160, 2-(benzo[d]oxazol-2-ylamino)-4-(2-chlorophenyl)-N-(4-(hydroxymethyl)phenyl)-6-methyl-1,4-dihydropyrimidine-5-carboxamide]		17.2							<1	>30	863.9 1 × 10^−6 cm/sec
COC(=O)c1cncc(NC(=O)C2=C(C)NC(Nc3nc4ccccc4o3)=NC2c2ccccc2Cl)c1 (stereo not drawn) [Compound 188, methyl 5-(2-(benzo[d]oxazol-2-ylamino)-4-(2-chlorophenyl)-6-methyl-1,4-dihydropyrimidine-5-carboxamido)nicotinate]		21	21.7						<1	>30	246.9 1 × 10^−6 cm/sec
CC1=C(C(=O)Nc2ccc(-c3nnn[nH]3)cc2)C(c2ccccc2Cl)N=C(Nc2nc3ccccc3o2)N1 (stereo not drawn) [Compound 192, N-(4-(1H-tetrazol-5-yl)phenyl)-2-(benzo[d]oxazol-2-ylamino)-4-(2-chlorophenyl)-6-methyl-1,4-dihydropyrimidine-5-carboxamide]		4.85	4.85			< 1.7			33.4	30	
COP(=O)(OC)C1=C(C)NC(Nc2nc3ccccc3o2)=NC1c1ccccc1Cl (stereo not drawn) [Compound 242, dimethyl (2-(benzo[d]oxazol-2-ylamino)-4-(2-chlorophenyl)-6-methyl-1,4-dihydropyrimidin-5-yl)phosphonate]			17.2						12.21	5.35	1813.86 1 × 10^−6 cm/sec
